Results reported in patent US10800754B2, “Heterocyclic amide compound” (TAKEDA PHARMACEUTICAL COMPANY LIMITED, priority 2016, dated 2020).

What follows are compounds tested against T1, human PRS protein (Homo sapiens, UniProt P07814) (assay: PRS inhibitory activity (ATP/[32P]pyrophosphate exchange enzyme reaction)). Conditions: 300 nM test compound; recombinant human PRS (EPRS 998-1512); read-out: inhibitory rate (%) of PRS.
T1 construct: to construct His-Avi-hEPRS (998-1512) expression plasmid; His tag (N); Avi tag (N); TEV cleavage site (ENLYFQ/GS, encoded by forward primer hEPRS-TEV-NheF) (N); made in house; host or cells: E. coli BL21(DE3)
T1 sequence (P07814 998-1512): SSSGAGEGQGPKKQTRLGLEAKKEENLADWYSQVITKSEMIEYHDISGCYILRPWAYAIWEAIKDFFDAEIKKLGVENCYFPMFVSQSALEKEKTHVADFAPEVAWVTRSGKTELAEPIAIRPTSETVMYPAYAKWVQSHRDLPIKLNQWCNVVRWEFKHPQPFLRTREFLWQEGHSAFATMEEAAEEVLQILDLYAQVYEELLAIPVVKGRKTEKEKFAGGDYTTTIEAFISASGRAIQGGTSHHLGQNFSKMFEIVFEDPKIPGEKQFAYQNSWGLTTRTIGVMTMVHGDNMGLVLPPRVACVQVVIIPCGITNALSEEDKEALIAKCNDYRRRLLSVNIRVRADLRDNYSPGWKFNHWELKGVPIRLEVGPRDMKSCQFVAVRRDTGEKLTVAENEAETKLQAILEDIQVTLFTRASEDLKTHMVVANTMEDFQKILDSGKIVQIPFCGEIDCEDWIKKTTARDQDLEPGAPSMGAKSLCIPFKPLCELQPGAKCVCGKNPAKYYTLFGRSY
Format: biochemical
Description: The PRS inhibitory activity of the compounds of the present invention was evaluated by the following method.
An expression plasmid of Catalytic Domain of human EPRS was obtained by PCR using human skeletal muscle cDNA Library (Takara Bio Inc.) as a template and 2 kinds of Primers 5′-[…]-3′ (hEPRS-TEV-NheF) (SEQ ID NO: 1) and 5′-[…]-3′ (hEPRS-St-Not-R) (SEQ ID NO: 2). PCR was performed using PrimeStar GXL DNA Polymerase (Takara Bio Inc.) and included (1) 98° C., 1 min, (2) cycles of 98° C., 10 sec, 65° C., 10 sec, 72° C., 1 min, and (3) reaction at 72° C., 1 min. This was cleaved with Nhe I and Not I (Takara Bio Inc.) and inserted using Ligation High (TOYOBO CO., LTD.) into the Nhe I/Not I site of pET21a (Novagen) with His-Avitag inserted thereinto. This was introduced into ECOS JM109 (NIPPON GENE CO., LTD.) to construct His-Avi-hEPRS (998-1512) expression plasmid.
Recombinant human PRS protein was prepared by transforming the His-Avi-hEPRS (998-1512) expression plasmid prepared above into ECOS Competent E. coli BL21(DE3) (NIPPON GENE CO., LTD.). Escherichia coli obtained by transformation was inoculated into 300 mL of LB medium (1% peptone, 0.5% yeast extract, 0.5% sodium chloride, 0.01% ampicillin) and cultured at 30° C. for 16 hr. The obtained culture medium was transferred into a jar culture tank charged with 6 L of the main fermentation medium (0.3% potassium dihydrogen phosphate, 0.6% disodium hydrogen phosphate, 0.1% ammonium chloride, 0.05% sodium chloride, 0.024% magnesium sulfate, 0.02% NEWPOL LB-625, 1.5% sorbitol, 1.5% casamino acid, 0.5% yeast extract, 0.01% ampicillin) and culturing was started at 37° C., quantity of airflow 5 L/min, stirring rotating speed 400 rpm. At the time point when the turbidity of the culture medium reached about 550 Klett units, the culture temperature was lowered to 16° C., isopropyl-β-D-thiogalactopyranoside (IPTG) was added to the final concentration 0.1 mM, and culturing was performed for another 16 hr to induce expression of human PRS. After completion of culturing, the culture medium was centrifuged at 5,000 rpm for 10 min. The obtained human PRS expressing Escherichia coli was suspended in a buffer containing 50 mM Tris-HCl (pH 8.0), 150 mM NaCl, 1 mM DTT, 5 U/ml Benzonase, 20 mM Imidazole and sonicated using Sonifier (BRANSON). The homogenate was centrifuged (33,000×G, 60 min, Beckman Coulter), the obtained supernatant was subjected to adsorption by passage through Ni-NTA Superflow (QIAGEN) column equilibrated in advance with 50 mM Tris-HCl (pH 8.0), 300 mM NaCl, 1 mM DTT, and elution was performed with a buffer containing 50 mM Tris-HCl (pH 8.0), 300 mM NaCl, 1 mM DTT, 250 mM Imidazole. Furthermore, gel filtration was performed using […] equilibrated in advance with a buffer containing 50 mM Tris-HCl (pH 8.0), 150 mM NaCl, 1 mM DTT, 10% glycerol to give purified human PRS protein. The protein concentration was measured using BCA Protein Assay Kit (PIERCE) and BSA as the standard.
A test compound was dissolved in 5 μL of an assay buffer (50 mM Tris-HCl (pH 7.5), 20 mM KCl, 1 mM DTT, 0.01% Tween 20) and incubated for 60 min with 5 μL of 40 nM human PRS protein dissolved in the assay buffer containing 40 mM MgCl2. An enzyme reaction of the human PRS protein was started by adding 10 μL of a substrate solution containing 300 μM ATP, 160 μM L-Proline, 400 μM pyrophosphate, [^32P]pyrophosphate (PerkinElmer, Waltham, Mass.) prepared to 1 MBq/mL. After incubation at room temperature for 30 min, the reaction was discontinued by adding 50 μL of discontinuation/washing solution (1M HCl, 200 mM sodium pyrophosphate) to the reaction mixture. The reaction solution was transferred to a filter plate (Merck Millipore, Billerica, Mass.) previously added with 200 μL of charcoal solution (0.5% HCl solution containing 10% charcoal (w/v)). […]

Compound | inhibition at 0.3 µM
Cc1cc(N2CC(C)C(C#N)(C3CC3)C2=O)cc(NC(=O)Cc2ccccc2)n1 (stereo not drawn) [Example 54, N-(4-(3-cyano-3-cyclopropyl-4-methyl-2-oxopyrrolidin-1-yl)-6-methylpyridin-2-yl)-2-phenylacetamide] | 77%
COC(=O)Cn1cc(-c2cccc(CC(=O)Nc3cc(N4CC[C@@](C#N)(C5CC5)C4=O)ccn3)c2)cn1 [Example 73, methyl (4-(3-(2-((4-((3S)-3-cyano-3-cyclopropyl-2-oxopyrrolidin-1-yl)pyridin-2-yl)amino)-2-oxoethyl)phenyl)-1H-pyrazol-1-yl)acetate] | 99%
N#C[C@@]1(C2CC2)CCN(c2ccnc(NC(=O)Cc3cccc(-c4cnn(CC5CCCC5)c4)c3)c2)C1=O [Example 75, N-(4-((3S)-3-cyano-3-cyclopropyl-2-oxopyrrolidin-1-yl)pyridin-2-yl)-2-(3-(1-(cyclopentylmethyl)-1H-pyrazol-4-yl)phenyl)acetamide] | 97%
N#C[C@@]1(C2CC2)CCN(c2ccnc(NC(=O)Cc3cccc(-c4cnn(CC5CCCO5)c4)c3)c2)C1=O (stereo partly drawn) [Example 76, N-(4-((3S)-3-cyano-3-cyclopropyl-2-oxopyrrolidin-1-yl)pyridin-2-yl)-2-(3-(1-(tetrahydrofuran-2-ylmethyl)-1H-pyrazol-4-yl)phenyl)acetamide] | 98%
N#C[C@@]1(C2CC2)CCN(c2ccnc(NC(=O)Cc3cccc(-c4cnn(CCn5ccnc5)c4)c3)c2)C1=O [Example 81, N-(4-((3S)-3-cyano-3-cyclopropyl-2-oxopyrrolidin-1-yl)pyridin-2-yl)-2-(3-(1-(2-(1H-imidazol-1-yl)ethyl)-1H-pyrazol-4-yl)phenyl)acetamide] | 97%
N#C[C@@]1(C2CC2)CCN(c2ccnc(NC(=O)Cc3cccc(-c4cnn(CC5CCCCC5)c4)c3)c2)C1=O [Example 82, N-(4-((3S)-3-cyano-3-cyclopropyl-2-oxopyrrolidin-1-yl)pyridin-2-yl)-2-(3-(1-(cyclohexylmethyl)-1H-pyrazol-4-yl)phenyl)acetamide] | 92%
COCCOCCn1cc(-c2cccc(CC(=O)Nc3cc(N4CC[C@@](C#N)(C5CC5)C4=O)ccn3)c2)cn1 [Example 86, N-(4-((3S)-3-cyano-3-cyclopropyl-2-oxopyrrolidin-1-yl)pyridin-2-yl)-2-(3-(1-(2-(2-methoxyethoxy)ethyl)-1H-pyrazol-4-yl)phenyl)acetamide] | 96%
N#C[C@@]1(C2CC2)CCN(c2ccnc(NC(=O)Cc3cccc(-c4cnn(CCc5ccccc5)c4)c3)c2)C1=O [Example 88, N-(4-((3S)-3-cyano-3-cyclopropyl-2-oxopyrrolidin-1-yl)pyridin-2-yl)-2-(3-(1-(2-phenylethyl)-1H-pyrazol-4-yl)phenyl)acetamide] | 97%
CS(=O)(=O)CCn1cc(-c2cccc(CC(=O)Nc3cc(N4CC[C@@](C#N)(C5CC5)C4=O)ccn3)c2)cn1 [Example 89, N-(4-((3S)-3-cyano-3-cyclopropyl-2-oxopyrrolidin-1-yl)pyridin-2-yl)-2-(3-(1-(2-(methylsulfonyl)ethyl)-1H-pyrazol-4-yl)phenyl)acetamide] | 100%
N#C[C@@]1(C2CC2)CCN(c2ccnc(NC(=O)Cc3cccc(-c4cnn(CC(C(F)(F)F)C(F)(F)F)c4)c3)c2)C1=O [Example 92, N-(4-((3S)-3-cyano-3-cyclopropyl-2-oxopyrrolidin-1-yl)pyridin-2-yl)-2-(3-(1-(3,3,3-trifluoro-2-(trifluoromethyl)propyl)-1H-pyrazol-4-yl)phenyl)acetamide] | 93%
N#C[C@@]1(C2CC2)CCN(c2cc(NC(=O)Cc3cccc(Cl)c3)ncn2)C1=O [Example 126, 2-(3-chlorophenyl)-N-(6-((3S)-3-cyano-3-cyclopropyl-2-oxopyrrolidin-1-yl)pyrimidin-4-yl)acetamide] | 57%

Further lines, results first:

inhibition at 0.3 µM | Compound
84% | Cn1cc(-c2cccc(CC(=O)Nc3cc(N4CC[C@@](C#N)(C5CC5)C4=O)cc(C(F)(F)F)n3)c2)cn1 [Example 61, N-(4-((3S)-3-cyano-3-cyclopropyl-2-oxopyrrolidin-1-yl)-6-(trifluoromethyl)-pyridin-2-yl)-2-(3-(1-methyl-1H-pyrazol-4-yl)phenyl)acetamide]
92% | COc1cc(N2CC[C@@](C#N)(C3CC3)C2=O)cc(NC(=O)Cc2cccc(-c3cnn(C)c3)c2)n1 [Example 62, N-(4-((3S)-3-cyano-3-cyclopropyl-2-oxopyrrolidin-1-yl)-6-methoxypyridin-2-yl)-2-(3-(1-methyl-1H-pyrazol-4-yl)phenyl)acetamide]
99% | N#C[C@@]1(C2CC2)CCN(c2ccnc(NC(=O)Cc3cccc(-c4cnn(CC(N)=O)c4)c3)c2)C1=O [Example 69, 2-(3-(1-(2-amino-2-oxoethyl)-1H-pyrazol-4-yl)phenyl)-N-(4-((3S)-3-cyano-3-cyclopropyl-2-oxopyrrolidin-1-yl)pyridin-2-yl)acetamide]
98% | N#C[C@@]1(C2CC2)CCN(c2ccnc(NC(=O)Cc3cccc(-c4cnn(CCn5cccn5)c4)c3)c2)C1=O [Example 80, N-(4-((3S)-3-cyano-3-cyclopropyl-2-oxopyrrolidin-1-yl)pyridin-2-yl)-2-(3-(1-(2-(1H-pyrazol-1-yl)ethyl)-1H-pyrazol-4-yl)phenyl)acetamide]
96% | N#C[C@@]1(C2CC2)CCN(c2ccnc(NC(=O)Cc3cccc(-c4cnn(CC(F)(F)C(F)(F)F)c4)c3)c2)C1=O [Example 96, N-(4-((3S)-3-cyano-3-cyclopropyl-2-oxopyrrolidin-1-yl)pyridin-2-yl)-2-(3-(1-(2,2,3,3,3-pentafluoropropyl)-1H-pyrazol-4-yl)phenyl)acetamide]
65% | N#C[C@@]1(C2CC2)CCN(c2cc(NC(=O)Cc3ccccc3)ncn2)C1=O [Example 127, N-(6-((3S)-3-cyano-3-cyclopropyl-2-oxopyrrolidin-1-yl)pyrimidin-4-yl)-2-phenylacetamide]
95% | N#C[C@@]1(C2CC2)CCN(c2ccnc(NC(=O)Cc3cccc4ccccc34)n2)C1=O [Example 128, N-(4-((3S)-3-cyano-3-cyclopropyl-2-oxopyrrolidin-1-yl)pyrimidin-2-yl)-2-(1-naphthyl)acetamide]
